The values below are quoted from earlier work in PubChem BioAssay AID1259409 (Chemical Carcinogenesis Research Information System (CCRIS), 2018).

For this data set, the system named is rodent chemically induced tumor inhibition, incidence and multiplicity. Put plainly: CCRIS tumor inhibitor studies.

Take `CC1(C)CC[C@]2(CO)CC[C@]3(C)C(=CC[C@@H]4[C@@]5(C)CC[C@H](O)[C@@](C)(CO)[C@@H]5CC[C@]43C)[C@H]2C1`: the “tumour outcome (control, treated, inhibition, significance)” value (Carcinogen: 7,12-DIMETHYLBENZ[A]ANTHRACENE, 57-97-6, Dose [Inhibitor]: 81 NMOL IN 100 µL ACETONE/DMSO (99:1) APPLIED 40 MIN PRIOR TO EACH PROMOTER DOSE (STUDY DURATION: 18 WK), Route [Inhibitor]: DERMAL, Species: MOUSE, Strain/Sex: ICR, Target Tissue: Type of Lesion: SKIN: CARCINOMA, Dose [Carcinogen]: 100 UG ONCE, Promoter: 12-O-TETRADECANOYLPHORBOL-13-ACETATE, 16561-29-8) is given as 100%, 20%, 80%, not calculated.
Consider `CC1=C(O)C(=O)CO1`, for which the “tumour outcome (control, treated, inhibition, significance)” value is 90%, 80%, 11%, not significant (Carcinogen: BENZO[A]PYRENE, 50-32-8, Dose [Inhibitor]: 0, 25 PPM IN DIET FOR 17 WK BEGINNING 1 WK POST CARCINOGEN TREATMENT (STUDY DURATION: 21 WK), Route [Inhibitor]: ORAL, Species: MOUSE, Strain/Sex: ICR/FEMALE, Target Tissue: Type of Lesion: FORESTOMACH: TUMOR, Dose [Carcinogen]: 1.5 MG IN 0.2 ML CORN OIL 1/WK FOR 4 WK, Promoter: NONE USED); 90%, 85%, 6%, not significant (Carcinogen: BENZO[A]PYRENE, 50-32-8, Dose [Inhibitor]: 0, 50 PPM IN DIET FOR 17 WK BEGINNING 1 WK POST CARCINOGEN TREATMENT (STUDY DURATION: 21 WK), Route [Inhibitor]: ORAL, Species: MOUSE, Strain/Sex: ICR/FEMALE, Target Tissue: Type of Lesion: FORESTOMACH: TUMOR, Dose [Carcinogen]: 1.5 MG IN 0.2 ML CORN OIL 1/WK FOR 4 WK, Promoter: NONE USED); 90%, 80%, 11%, not significant (Carcinogen: BENZO[A]PYRENE, 50-32-8, Dose [Inhibitor]: 0, 75 PPM IN DIET FOR 17 WK BEGINNING 1 WK POST CARCINOGEN TREATMENT (STUDY DURATION: 21 WK), Route [Inhibitor]: ORAL, Species: MOUSE, Strain/Sex: ICR/FEMALE, Target Tissue: Type of Lesion: FORESTOMACH: TUMOR, Dose [Carcinogen]: 1.5 MG IN 0.2 ML CORN OIL 1/WK FOR 4 WK, Promoter: NONE USED).
Regarding `NCCc1cc(O)c(O)cc1O`, the “tumour outcome (control, treated, inhibition, significance)” value is recorded as 14/20 (70%), 4/17 (24%), 66%, p<0.02 (Carcinogen: AZOXYMETHANE, 25843-45-2, Dose [Inhibitor]: 0, 42 MG/KG BW IN 0.9% SALINE TWICE ON FIRST DAY THEN 0, 105 MG/KG 1/2 WK FOR DURATION OF STUDY (STUDY DURATION: 35 WK), Dose [Inhibitor]: 0, 42 MG/KG BW IN 0.9% SALINE TWICE ON FIRST DAY THEN 0, 105 MG/KG 1/2 WK FOR DURATION OF STUDY (STUDY DURATION: 35 WK), Route [Inhibitor]: INTRAPERITONEAL, Species: RAT, Strain/Sex: WISTAR/MALE, Target Tissue: Type of Lesion: COLON: TUMOR, Dose [Carcinogen]: 7.4 MG/KG BW IN 0.9% SALINE 1/WK FOR 10 WK, Promoter: NONE USED) and 16/20 (80%), 9/20 (45%), 44%, p<0.05 (Carcinogen: N-METHYL-N'-NITRO-N-NITROSOGUANIDINE, 70-25-7, Dose [Inhibitor]: 0, 42 MG/KG 2/24 HR BEGINNING POST CARCINOGEN TREATMENT THEN 1 WK LATER 105 MG/KG 1/2 WK (STUDY DURATION: 52 WK), Route [Inhibitor]: INTRAPERITONEAL, Species: RAT, Strain/Sex: WISTAR/MALE, Target Tissue: Type of Lesion: STOMACH: ADENOCARCINOMA, Dose [Carcinogen]: 75 UG/ML IN DRINKING WATER FOR 25 WK, Promoter: NONE USED).
For `O=C1NS(=O)(=O)c2ccccc21`, the “tumour outcome (control, treated, inhibition, significance)” value by setting is: (Carcinogen: N-BUTYL-N-(4-HYDROXYBUTYL)NITROSAMINE, 3817-11-6, Dose [Inhibitor]: 0.5% DIET DAILY FOR 34 WK STARTING AT COMPLETION OF CARCINOGEN TREATMENT (STUDY DURATION: 38 WK), Route [Inhibitor]: ORAL, Species: RAT, Strain/Sex: F344/MALE, Target Tissue: Type of Lesion: URINARY BLADDER: PAPILLOMA, Dose [Carcinogen]: 0.01% IN DRINKING WATER FOR 4 WK, Promoter: NONE USED) 33%, 33%, 0%, not significant; (Carcinogen: N-BUTYL-N-(4-HYDROXYBUTYL)NITROSAMINE, 3817-11-6, Dose [Inhibitor]: 5% DIET DAILY FOR 34 WK STARTING AT COMPLETION OF CARCINOGEN TREATMENT (STUDY DURATION: 38 WK), Route [Inhibitor]: ORAL, Species: RAT, Strain/Sex: F344/MALE, Target Tissue: Type of Lesion: URINARY BLADDER: PAPILLOMA, Dose [Carcinogen]: 0.01% IN DRINKING WATER FOR 4 WK, Promoter: NONE USED) 33%, 20%, 39%, not significant.
With `CC(=O)[C@H]1CC[C@H]2[C@@H]3CCC4=CC(=O)CC[C@]4(C)[C@H]3CC[C@]12C`, the “tumour outcome (control, treated, inhibition, significance)” value by setting is: (Carcinogen: 7,12-DIMETHYLBENZ[A]ANTHRACENE, 57-97-6, Dose [Inhibitor]: 0, 1 MG/100 G BW 3/WK FOR 150 D BEGINNING POST CARCINOGEN TREATMENT (STUDY DURATION: 150 D), Route [Inhibitor]: SUBCUTANEOUS, Species: RAT, Strain/Sex: WISTAR/FEMALE, Target Tissue: Type of Lesion: MAMMARY GLAND: ADENOCARCINOMA, Dose [Carcinogen]: 4 MG IN 0.1 ML OF SESAME OIL INJECTED ONCE INTO THE EXPOSED MAMMARY TISSUE OF HYPERPROLACTINEMIC RATS ON DAY 73 OF AGE, Promoter: NONE USED) 8/11 (73%), 5/11 (45%), 38%, p<0.05; (Carcinogen: N-METHYL-N-NITROSOUREA, 684-93-5, Dose [Inhibitor]: 0, 2560 MG/KG IN DIET FOR THE DURATION OF STUDY BEGINNING 7 D PRIOR TO CARCINOGEN DOSE (STUDY DURATION: 187 D), Route [Inhibitor]: ORAL, Species: RAT, Strain/Sex: SPRAGUE-DAWLEY/FEMALE, Target Tissue: Type of Lesion: MAMMARY GLAND: TUMOR, Dose [Carcinogen]: 50 MG/KG BW ONCE, Promoter: NONE USED) 100%, 95%, 5%, not significant.
